Data as given in ChEMBL document CHEMBL1201862, “PubChem BioAssay data set” (2004).
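Five concentrations, 48 hours, 96-well plates. At the GI50, growth is halved.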 Active and inactive are the calls of the source. No stated cut-off is given here; in the data, active = GI50 up to about 1.1 µM and inactive = higher.

What was measured:
Test in all cases: NCI anticancer screen, dose series, 48 h
786-0 = system: 786-0
A549 = system: A549
ACHN = system: ACHN
EKVX = system: EKVX
Hs-578T = system: Hs-578T
IGROV-1 = system: IGROV-1
M14 = system: M14
MCF7 = system: MCF7
MDA-MB-435 = system: MDA-MB-435
Malme-3M = system: Malme-3M
NCI-H522 = system: NCI-H522
OVCAR-3 = system: OVCAR-3
OVCAR-5 = system: OVCAR-5
RXF 393 = system: RXF 393
SF-295 = system: SF-295
SK-MEL-28 = system: SK-MEL-28
SK-OV-3 = system: SK-OV-3
SR = system: SR
TK-10 = system: TK-10
UACC-257 = system: UACC-257

SMILES | GI50 (786-0) | GI50 (A549) | GI50 (ACHN) | GI50 (EKVX) | GI50 (Hs-578T) | GI50 (IGROV-1) | GI50 (M14) | GI50 (MCF7) | GI50 (MDA-MB-435) | GI50 (Malme-3M) | GI50 (NCI-H522) | GI50 (OVCAR-3) | GI50 (OVCAR-5) | GI50 (RXF 393) | GI50 (SF-295) | GI50 (SK-MEL-28) | GI50 (SK-OV-3) | GI50 (SR) | GI50 (TK-10) | GI50 (UACC-257)
O=C(c1cccs1)N1CCc2ccccc2C1 | > 100 µM (inactive) | > 100 µM (inactive) | > 100 µM (inactive) | 97.1 µM (inactive) | 85.5 µM (inactive) | > 100 µM (inactive) | > 100 µM (inactive) | > 100 µM (inactive) | 33.3 µM (inactive) | > 100 µM (inactive) | > 100 µM (inactive) | > 100 µM (inactive) | > 100 µM (inactive) | > 100 µM (inactive) | > 100 µM (inactive) | > 100 µM (inactive) | > 100 µM (inactive) | 97.5 µM (inactive) | > 100 µM (inactive) | > 100 µM (inactive)
CC(=O)Oc1ccc2c(c1)c1c(=O)oc(N(C)C)nc1n2Cc1ccccc1 | 50.9 µM (inactive) | 48.4 µM (inactive) | 45.3 µM (inactive) | > 100 µM (inactive) | > 53.3 µM (inactive) | > 95.1 µM (inactive) | > 78.7 µM (inactive) | 25.2 µM (inactive) | 46.2 µM (inactive) | 47.9 µM (inactive) | 12.8 µM (inactive) | 55.1 µM (inactive) | > 100 µM (inactive) | 52.5 µM (inactive) | 47.9 µM (inactive) | > 100 µM (inactive) | > 100 µM (inactive) | 43.1 µM (inactive) | > 100 µM (inactive) | > 86.5 µM (inactive)
COC(=O)/C=C(\CC(=O)OC)n1nnnc1[C@@H]1C[C@H](COC(c2ccccc2)(c2ccccc2)c2ccccc2)[C@H]2OC(C)(C)O[C@H]21 | > 100 µM (inactive) | > 100 µM (inactive) | > 100 µM (inactive) | 54.2 µM (inactive) | 68.4 µM (inactive) | 60.5 µM (inactive) | > 100 µM (inactive) | 31.9 µM (inactive) | > 100 µM (inactive) | > 100 µM (inactive) | 51.6 µM (inactive) | > 100 µM (inactive) | > 100 µM (inactive) | 42.1 µM (inactive) | > 100 µM (inactive) | > 100 µM (inactive) | > 100 µM (inactive) | 92 µM (inactive) | > 100 µM (inactive) | > 100 µM (inactive)
CC(C)(C)OC(=O)N1CC(CCl)c2ccc(O)cc21 (stereo not given) | 3.74 µM (inactive) | 3.12 µM (inactive) | 1.11 µM (active) | 2.75 µM (inactive) | 2.8 µM (inactive) | 3.84 µM (inactive) | 1.72 µM (inactive) | 0.753 µM (active) | 1.99 µM (inactive) | 1.64 µM (inactive) | 0.612 µM (active) | 2.51 µM (inactive) | 3.27 µM (inactive) | 0.693 µM (active) | 3.65 µM (inactive) | 2.09 µM (inactive) | 5.05 µM (inactive) | 1.45 µM (inactive) | 2.4 µM (inactive) | 2.01 µM (inactive)
COCOC1/C=C/CCCCC(=O)C(C)C#CC1 (stereo not given) | 2.09 µM (inactive) | 12.9 µM (inactive) | 6.67 µM (inactive) | 9.86 µM (inactive) | 20.3 µM (inactive) | 3.65 µM (inactive) | 3.72 µM (inactive) | 3.89 µM (inactive) | 5.52 µM (inactive) | 1.98 µM (inactive) | 1.53 µM (inactive) | 4.13 µM (inactive) | 12.8 µM (inactive) | 3.06 µM (inactive) | 16.6 µM (inactive) | 12.4 µM (inactive) | 15.8 µM (inactive) | 2.74 µM (inactive) | 8 µM (inactive) | 5.65 µM (inactive)
CCOC(=O)NC(OCCN(C)C)(C(F)(F)F)C(F)(F)F | > 100 µM (inactive) | > 100 µM (inactive) | > 100 µM (inactive) | > 100 µM (inactive) | > 100 µM (inactive) | > 100 µM (inactive) | > 100 µM (inactive) | > 100 µM (inactive) | > 100 µM (inactive) | > 100 µM (inactive) | > 100 µM (inactive) | > 100 µM (inactive) | > 100 µM (inactive) | 9.79 µM (inactive) | > 100 µM (inactive) | > 100 µM (inactive) | > 100 µM (inactive) | > 100 µM (inactive) | > 100 µM (inactive) | > 100 µM (inactive)
CN(C)c1ccc(/C=C2\N=C(c3ccc([N+](=O)[O-])cc3)OC2=O)cc1 | 90.8 µM (inactive) | 91 µM (inactive) | 47.6 µM (inactive) | > 100 µM (inactive) | 40.5 µM (inactive) | > 100 µM (inactive) | > 100 µM (inactive) | 49.9 µM (inactive) | 81.8 µM (inactive) | 49.2 µM (inactive) | 33.3 µM (inactive) | 44.9 µM (inactive) | > 100 µM (inactive) | 21.5 µM (inactive) | > 100 µM (inactive) | > 100 µM (inactive) | > 100 µM (inactive) | 38.4 µM (inactive) | > 100 µM (inactive) | 57.3 µM (inactive)
S=C1CSc2c(ccc3ccccc23)N1 | > 100 µM (inactive) | 67.1 µM (inactive) | > 100 µM (inactive) | 21.7 µM (inactive) | 51.4 µM (inactive) | > 100 µM (inactive) | > 100 µM (inactive) | > 100 µM (inactive) | > 100 µM (inactive) | > 100 µM (inactive) | > 100 µM (inactive) | > 100 µM (inactive) | > 100 µM (inactive) | 35.9 µM (inactive) | > 100 µM (inactive) | > 100 µM (inactive) | > 100 µM (inactive) | > 100 µM (inactive) | > 100 µM (inactive) | > 100 µM (inactive)
CSc1c(C)[n+]([O-])c2cc(Cl)c(Cl)cc2[n+]1[O-] | 17.3 µM (inactive) | > 100 µM (inactive) | 16.8 µM (inactive) | 16.3 µM (inactive) | 24.2 µM (inactive) | 14 µM (inactive) | 19.8 µM (inactive) | 19 µM (inactive) | 18.5 µM (inactive) | 16.9 µM (inactive) | 12.2 µM (inactive) | 11.5 µM (inactive) | 17.4 µM (inactive) | 21.5 µM (inactive) | > 56.8 µM (inactive) | 19 µM (inactive) | > 100 µM (inactive) | 3.13 µM (inactive) | 20.6 µM (inactive) | 17.9 µM (inactive)
O=c1[nH]c2nc[nH]c2c(=O)n1C1CCCCC1 | > 100 µM (inactive) | > 100 µM (inactive) | > 100 µM (inactive) | > 100 µM (inactive) | > 100 µM (inactive) | > 100 µM (inactive) | > 100 µM (inactive) | > 100 µM (inactive) | > 100 µM (inactive) | > 100 µM (inactive) | > 100 µM (inactive) | > 100 µM (inactive) | > 100 µM (inactive) | > 100 µM (inactive) | > 100 µM (inactive) | > 100 µM (inactive) | > 100 µM (inactive) | > 100 µM (inactive) | > 100 µM (inactive) | > 100 µM (inactive)
CC(=O)C(=Cc1ccc(C=C(C(C)=O)C(C)=O)cc1)C(C)=O | 2.17 µM (inactive) | 2.93 µM (inactive) | 1.76 µM (inactive) | 5.31 µM (inactive) | 3.58 µM (inactive) | 2.02 µM (inactive) | 1.34 µM (inactive) | 1.87 µM (inactive) | 1.63 µM (inactive) | 2.01 µM (inactive) | 1.37 µM (inactive) | 2.01 µM (inactive) | 2.79 µM (inactive) | 1.9 µM (inactive) | 2.11 µM (inactive) | 1.71 µM (inactive) | 6.07 µM (inactive) | 0.238 µM (active) | 2.22 µM (inactive) | 1.92 µM (inactive)
COc1ccc(NC(/C(C(=O)c2ccccc2)=C(\O)C(=O)/C=C(\O)c2ccccc2)c2ccc(OC)cc2)cc1 (stereo not given) | 31 µM (inactive) | 28.6 µM (inactive) | 64.9 µM (inactive) | 18.7 µM (inactive) | 36 µM (inactive) | 35 µM (inactive) | 23.2 µM (inactive) | 39.5 µM (inactive) | 20.6 µM (inactive) | 21.2 µM (inactive) | 15.2 µM (inactive) | 21.6 µM (inactive) | > 100 µM (inactive) | 37.1 µM (inactive) | 33 µM (inactive) | 32.9 µM (inactive) | 39.3 µM (inactive) | 31.6 µM (inactive) | 30.3 µM (inactive) | 40.7 µM (inactive)
C=C(C(=O)O[C@H]1C(=O)C2=C(C)CCC3C(=C)C(=O)O[C@@H]3C2[C@]1(C)O)C1CC[C@]2(C)CCCC(=C)[C@H]2C1 (stereo not given in full) | 1.88 µM (inactive) | 8.89 µM (inactive) | 4.58 µM (inactive) | 7.98 µM (inactive) | 4.61 µM (inactive) | 4.62 µM (inactive) | 7.62 µM (inactive) | 3.32 µM (inactive) | 3.35 µM (inactive) | 8.83 µM (inactive) | 3.53 µM (inactive) | 4.75 µM (inactive) | 17.7 µM (inactive) | 0.0246 µM (active) | 15.5 µM (inactive) | 5.92 µM (inactive) | 16.9 µM (inactive) | 7.4 µM (inactive) | 2.55 µM (inactive) | 4.25 µM (inactive)
O=[N+]([O-])c1ccc(Oc2c(Cl)cc(S(=O)(=O)N/C(=N\O)Nc3ccc(Cl)cc3)cc2Cl)cc1 | 11.2 µM (inactive) | 13.6 µM (inactive) | 11.6 µM (inactive) | 11.9 µM (inactive) | 14.6 µM (inactive) | 14 µM (inactive) | 12.6 µM (inactive) | 7 µM (inactive) | 13.9 µM (inactive) | 14.8 µM (inactive) | 3.15 µM (inactive) | 5.87 µM (inactive) | 7.66 µM (inactive) | 13.5 µM (inactive) | 13.1 µM (inactive) | 13.9 µM (inactive) | 15.7 µM (inactive) | 4.02 µM (inactive) | 11.2 µM (inactive) | 10.6 µM (inactive)
